From PMC9367672, “In vitro differences in toddalolactone metabolism in various species and its effect on cytochrome P450 expression” (Pharmaceutical Biology, 2022)

Tests used:
[1] = Metabolic stability assessment in monkey liver microsomes; format: in vitro ADME; details: pH 7.4, MLMs, toddalolactone 20 μM, 0-90 min
Procedure: (§1) The CYP reaction system (200 μL) consisted of 0.1 M potassium phosphate buffer (pH 7.4), an NADPH-generating system (1 mM NADPH, 10 mM G-6-P, 1 unit/mL G-6-PD, 4 mM MgCl2), and liver microsomes or recombinant human microsomes (supersomes). Each of the in vitro enzymatic assays using liver microsomes was linear with respect to incubation time and amount of protein. After a pre-incubation at 37 °C for 3 min, the reactions were initiated by adding NADP^+. After incubating for 60 min, the reactions were quenched by adding 200 μL of ice-cold acetonitrile. Samples were centrifuged at 18,000 g for 15 min at 4 °C and 10 μL of supernatant was analyzed using an HPLC system. […]
(§2) In the UGT reaction system, liver microsomes were incubated in 200 μL of the reaction system containing 4 mM UDPGA, 5 mM MgCl2, 20 µg/mL alamethicin, and 50 mM Tris-HCl buffer (pH 7.4). […] After centrifugation at 18,000 g for 15 min, 10 μL of the supernatant was analyzed by HPLC.
(§3) Toddalolactone (20 μM) was incubated with different liver microsomes, including HLMs, DLMs, PLMs, MLMs, RAMs, RLMs or MIMs in oxidative metabolism and glucuronidation reaction systems. […] The mixtures were centrifuged at 18,000 g for 15 min at 4 °C and then 10 μL of the supernatant was analyzed by HPLC. […]
(§4) The peak areas of toddalolactone and its metabolites were detected using a HPLC system (Shimadzu, Kyoto, Japan). […]

[2] = Metabolic stability assessment in rabbit liver microsomes; format: in vitro ADME; details: pH 7.4, RAMs, toddalolactone 20 μM, 0-90 min
Procedure: as §1, §2, §3, §4

[3] = Metabolic stability assessment in mouse liver microsomes; format: in vitro ADME; details: pH 7.4, MIMs, CYP incubation system, toddalolactone 20 μM, 0-90 min, read-out: half-life value (T1/2)
Procedure: as §1, §2, §3, §4

DLMs = assay: Prediction of in vivo hepatic clearance in dogs from DLM kinetics; format: in vitro ADME, dog
Procedure: (§5) The in vivo hepatic clearances in oxidative metabolism and glucuronidation of toddalolactone were calculated using Equations (4)–(6) (Li et al. [2008]): (4) CLint in vitro=∑i=1nVmax(Mi)/Km(Mi) (5) CLint in vivo=CLint in vitro⋅SF (6) CLH=QH⋅fu⋅CLint in vivo/QH+fu⋅CLint in vivo where SF is the milligrams of microsomal protein per gram of liver multiplied by the grams of liver weight; CLH is hepatic clearance; fu is the unbound fraction in the blood (the value of fu was set to 1 due to the absence of available data for toddalolactone); QH is the blood flow in the liver; and Mi is the metabolite of toddalolacone. The physiological parameters to calculate intrinsic clearance were as follows. The liver weight of dogs, rats and humans were 32, 40 and 25.7 g/kg body weight, respectively; the content of microsomal protein was 77.9, 44.8 and 48.8 mg/g of liver; and the blood flow in the liver was 30.9, 55.2 and 20.7 mL/(min ⋅ kg), respectively (Naritomi et al. [2001]).

RLMs = assay: Prediction of in vivo hepatic clearance in rats from RLM kinetics; format: in vitro ADME, rat
Procedure: as §5

[4] = parameters: method as in Zhou et al. ([2021]); details: mouse blood; intravenous administration; ref Zhou et al. ([2021]); cited from earlier work
[5] = CYP incubation system, read-out: half-life value (T1/2)
[6] = UGT incubation system, read-out: T1/2 value

Question: For COc1cc2oc(=O)ccc2c(OC)c1C[C@@H](O)C(C)(C)O [toddalolactone], which half-life at 20 μM [1, 5] is on record?
Answer: 4.08 h

Question: And the half-life at 20 μM [1, 6]?
Answer: 1.1 h

Question: What about the half-life at 20 μM [2, 5] of the same compound?
Answer: 6.78 ± 0.517 h

Question: What about the half-life at 20 μM [2, 6] of the same compound?
Answer: 2.07 ± 0.138 h

Question: What about the half-life at 20 μM [3] of the same compound?
Answer: 3.92 ± 0.35 h

Question: And the “CLH versus hepatic blood flow (QH)” value (DLMs; DLMs)?
Answer: 5.41%

Question: And the “clearance class according to predicted CLH” value (DLMs; dogs)?
Answer: low-clearance (low-clearance drugs (<30% liver blood flow))

Question: What about the “in vivo hepatic clearance (CLH)” value (DLMs; dogs, predicted from kinetic parameters of P1–P6, fu set to 1) of the same compound?
Answer: 0.47 mL/(min/kg body weight)

Question: What about the “CLH versus hepatic blood flow (QH)” value (RLMs; RLMs) of the same compound?
Answer: 1.52%

Question: And the “clearance class according to predicted CLH” value (RLMs; rats)?
Answer: low-clearance (low-clearance drugs (<30% liver blood flow))

Question: What about the “in vivo hepatic clearance (CLH)” value (RLMs; rats, predicted from kinetic parameters of P1–P6, fu set to 1) of the same compound?
Answer: 1.12 mL/(min/kg body weight)

Question: And the t1/2 [4]?
Answer: 0.8 h
